In US9738655B2, “Tetrahydroisoquinolines containing substituted azoles as factor XIa inhibitors” (BRISTOL-MYERS SQUIBB COMPANY, priority 2013, dated 2017):
Structures can show the parent of a compound that is named as a salt. Where two headings read alike, the source gives them in different places.

Tests used:
[1] = molecular target: purified human Factor XIa (Homo sapiens (Human), UniProt P03951); assay: Factor XIa enzyme inhibition assay (chromogenic substrate S-2366)
[2] = molecular target: purified human plasma kallikrein (Homo sapiens (Human), UniProt P03952); assay: Plasma kallikrein enzyme inhibition assay (chromogenic substrate S-2302); type: biochemical
[3] = read-out: Factor XIa Ki, measured at 25° C.
[4] = measured at 25° C. (no asterisk)

Chain of purified human Factor XIa (P03951 388-625): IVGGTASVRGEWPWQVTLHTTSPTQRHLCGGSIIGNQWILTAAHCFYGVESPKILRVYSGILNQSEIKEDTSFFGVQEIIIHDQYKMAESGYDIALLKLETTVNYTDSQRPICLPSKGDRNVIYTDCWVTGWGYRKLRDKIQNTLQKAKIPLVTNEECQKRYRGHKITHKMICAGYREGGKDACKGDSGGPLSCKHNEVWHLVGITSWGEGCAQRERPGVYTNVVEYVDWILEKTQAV
Chain of purified human Factor XIa (P03951 19-387 partner): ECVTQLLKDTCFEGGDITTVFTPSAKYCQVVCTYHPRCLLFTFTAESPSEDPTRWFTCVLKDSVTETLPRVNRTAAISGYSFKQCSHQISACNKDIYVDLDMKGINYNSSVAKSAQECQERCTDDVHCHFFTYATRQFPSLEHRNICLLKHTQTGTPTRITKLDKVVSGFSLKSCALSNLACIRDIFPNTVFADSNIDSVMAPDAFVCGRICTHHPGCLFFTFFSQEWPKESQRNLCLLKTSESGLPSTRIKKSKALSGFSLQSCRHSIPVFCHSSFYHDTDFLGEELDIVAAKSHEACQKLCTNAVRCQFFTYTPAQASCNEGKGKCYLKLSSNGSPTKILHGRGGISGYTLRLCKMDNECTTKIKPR
Chain of purified human plasma kallikrein (P03952 391-638): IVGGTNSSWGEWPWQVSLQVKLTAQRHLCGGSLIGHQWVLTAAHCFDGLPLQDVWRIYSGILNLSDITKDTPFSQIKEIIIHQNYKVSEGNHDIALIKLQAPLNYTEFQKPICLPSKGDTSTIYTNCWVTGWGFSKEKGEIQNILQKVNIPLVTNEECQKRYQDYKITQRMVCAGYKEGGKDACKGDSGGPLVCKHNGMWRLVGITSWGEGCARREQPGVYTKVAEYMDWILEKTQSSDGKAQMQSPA
Chain of purified human plasma kallikrein (P03952 20-390 partner): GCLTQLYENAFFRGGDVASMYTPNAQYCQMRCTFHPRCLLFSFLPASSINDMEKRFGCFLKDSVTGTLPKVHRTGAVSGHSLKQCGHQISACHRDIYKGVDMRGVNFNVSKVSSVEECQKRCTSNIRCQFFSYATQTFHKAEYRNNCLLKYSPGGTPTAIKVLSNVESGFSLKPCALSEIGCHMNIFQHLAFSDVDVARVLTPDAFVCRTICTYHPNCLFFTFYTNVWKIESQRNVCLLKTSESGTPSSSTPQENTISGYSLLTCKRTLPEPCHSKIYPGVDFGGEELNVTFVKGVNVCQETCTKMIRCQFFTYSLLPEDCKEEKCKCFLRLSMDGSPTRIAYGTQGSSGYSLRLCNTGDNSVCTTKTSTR

In the case of `CNC(=O)c1ccc(-c2cccc3c2CCN(C(=O)c2cn(-c4cccc(Cl)c4F)nn2)[C@@H]3C(=O)Nc2ccc(C(=O)O)cc2)cn1` [Example 44, (S)-4-(2-(1-(3-Chloro-2-fluorophenyl)-1H-1,2,3-triazole-4-carbonyl)-5-(6-(methylcarbamoyl)pyridin-3-yl)-1,2,3,4-tetrahydroisoquinoline-1-carboxamido)benzoic acid, TFA salt], the Ki [1, 3] is reported as < 5 nM and the Ki [2, 4] is reported as 3.28 nM.

`CNC(=O)c1ccc(-c2cccc3c2CCN(C(=O)c2cn(-c4cccc(Cl)c4F)nn2)[C@H]3C(=O)Nc2ccc(C(=O)O)cc2)cn1` [Example 45, (R)-4-(2-(1-(3-Chloro-2-fluorophenyl)-1H-1,2,3-triazole-4-carbonyl)-5-(6-(methylcarbamoyl)pyridin-3-yl)-1,2,3,4-tetrahydroisoquinoline-1-carboxamido)benzoic acid, TFA salt] gave a Ki [1, 3] of 20.6 nM and a Ki [2, 4] of 364 nM.

In the case of `CN(C)C1CCN(c2cccc3c2CCN(C(=O)c2cn(-c4cccc(Cl)c4F)nn2)[C@H]3C(=O)Nc2ccc(C(=O)O)cc2)CC1` [Example 48, (R)-4-(2-(1-(3-chloro-2-fluorophenyl)-1H-1,2,3-triazole-4-carbonyl)-5-(4-(dimethylamino)piperidin-1-yl)-1,2,3,4-tetrahydroisoquinoline-1-carboxamido)benzoic acid, bis-TFA salt], the Ki [1] is reported as 89.6 nM and the Ki [2, 4] is reported as 452 nM.

`CN(C)C1CCN(c2cccc3c2CCN(C(=O)c2cnn(-c4cccc(Cl)c4F)c2)C3C(=O)Nc2ccc(C(=O)O)cc2)CC1` (centres unmarked) [Example 50, 4-(2-(1-(3-chloro-2-fluorophenyl)-1H-pyrazole-4-carbonyl)-5-(4-(dimethylamino)piperidin-1-yl)-1,2,3,4-tetrahydroisoquinoline-1-carboxamido)benzoic acid, bis-TFA salt] was tested, and the Ki [1, 3] was < 5 nM and the Ki [2, 4] was 4.94 nM.

With `CN(C)C1CCN(c2cccc3c2CCN(C(=O)c2cn(-c4cccc(Cl)c4F)cn2)C3C(=O)Nc2ccc(C(=O)O)cc2)CC1` (centres unmarked) [Example 53, 4-(2-(1-(3-chloro-2-fluorophenyl)-1H-imidazole-4-carbonyl)-5-(4-(dimethylamino)piperidin-1-yl)-1,2,3,4-tetrahydroisoquinoline-1-carboxamido)benzoic acid, bis-TFA salt] the Ki [1, 3] was < 5 nM and the Ki [2, 4] was 1.21 nM.

In the case of `CN(C)C(=O)C1CCN(c2cccc3c2CCN(C(=O)c2cn(-c4cccc(Cl)c4F)nn2)C3C(=O)Nc2ccc(C(=O)O)cc2)CC1` (centres unmarked) [Example 56, 4-(2-(1-(3-chloro-2-fluorophenyl)-1H-1,2,3-triazole-4-carbonyl)-5-(4-(dimethylcarbamoyl)piperidin-1-yl)-1,2,3,4-tetrahydroisoquinoline-1-carboxamido)benzoic acid, TFA salt], the Ki [1, 3] is reported as < 5 nM and the Ki [2, 4] is reported as 5.6 nM.

In the case of `CN(C)C(=O)C1CCN(c2cccc3c2CCN(C(=O)c2cnn(-c4cccc(Cl)c4F)c2)C3C(=O)Nc2ccc(C(=O)O)cc2)CC1` (centres unmarked) [Example 59, 4-(2-(1-(3-chloro-2-fluorophenyl)-1H-pyrazole-4-carbonyl)-5-(4-(dimethylcarbamoyl)piperidin-1-yl)-1,2,3,4-tetrahydroisoquinoline-1-carboxamido)benzoic acid, TFA salt], the Ki [1, 3] is reported as < 5 nM and the Ki [2, 4] is reported as 10.1 nM.

In the case of `CC(C)c1nnc2n1CCN(c1cccc3c1CCN(C(=O)c1cn(-c4cccc(Cl)c4F)nn1)C3C(=O)Nc1ccc(C(=O)O)cc1)C2` (centres unmarked) [Example 64, 4-(2-(1-(3-chloro-2-fluorophenyl)-1H-1,2,3-triazole-4-carbonyl)-5-(3-isopropyl-5,6-dihydro-[1,2,4]triazolo[4,3-a]pyrazin-7(8H)-yl)-1,2,3,4-tetrahydroisoquinoline-1-carboxamido)benzoic acid, TFA salt], the Ki [1, 3] is reported as < 5 nM and the Ki [2, 4] is reported as 4.7 nM.

For `CC(C)c1nnc2n1CCN(c1cccc3c1CCN(C(=O)c1cn(-c4cccc(Cl)c4F)nn1)[C@H]3C(=O)Nc1ccc(C(=O)O)cc1)C2` [Example 65, (R)-4-(2-(1-(3-chloro-2-fluorophenyl)-1H-1,2,3-triazole-4-carbonyl)-5-(3-isopropyl-5,6-dihydro-[1,2,4]triazolo[4,3-a]pyrazin-7(8H)-yl)-1,2,3,4-tetrahydroisoquinoline-1-carboximido)benzoic acid, TFA salt], the Ki [1, 3] was 18.9 nM and the Ki [2, 4] was 260 nM.

In the case of `CC(C)c1nnc2n1CCN(c1cccc3c1CCN(C(=O)c1cn(-c4cccc(Cl)c4F)nn1)[C@@H]3C(=O)Nc1ccc(C(=O)O)cc1)C2` [Example 66, (S)-4-(2-(1-(3-chloro-2-fluorophenyl)-1H-1,2,3-triazole-4-carbonyl)-5-(3-isopropyl-5,6-dihydro-[1,2,4]triazolo[4,3-a]pyrazin-7(8H)-yl)-1,2,3,4-tetrahydroisoquinoline-1-carboxamido)benzoic acid, TFA salt], the Ki [1, 3] is reported as < 5 nM and the Ki [2, 4] is reported as 2.57 nM.

`CC1(O)CCN(c2cccc3c2CCN(C(=O)c2cn(-c4cccc(Cl)c4F)nn2)C3C(=O)Nc2ccc(C(=O)O)cc2)CC1` (centres unmarked) [Example 67, 4-(2-(1-(3-chloro-2-fluorophenyl)-1H-1,2,3-triazole-4-carbonyl)-5-(4-hydroxy-4-methylpiperidin-1-yl)-1,2,3,4-tetrahydroisoquinoline-1-carboxamido)benzoic acid, TFA salt] was tested, and the Ki [1, 3] was < 5 nM and the Ki [2, 4] was 7.17 nM.

In the case of `O=C(O)c1ccc(NC(=O)C2c3cccc(N4CCOCC4=O)c3CCN2C(=O)c2cn(-c3cccc(Cl)c3F)nn2)cc1` (centres unmarked) [Example 69, 4-(2-(1-(3-chloro-2-fluorophenyl)-1H-1,2,3-triazole-4-carbonyl)-5-(3-oxomorpholino)-1,2,3,4-tetrahydroisoquinoline-1-carboxamido)benzoic acid], the Ki [1, 3] is reported as < 5 nM and the Ki [2, 4] is reported as 9.92 nM.

With `COC1CCN(c2cccc3c2CCN(C(=O)C2CC(=O)N(c4c(F)ccc(Cl)c4F)C2)C3C(=O)Nc2ccc(C(=O)O)cc2)CC1` (centres unmarked) [Example 71, 4-(2-(1-(3-chloro-2,6-difluorophenyl)-5-oxopyrrolidine-3-carbonyl)-5-(4-methoxypiperidin-1-yl)-1,2,3,4-tetrahydroisoquinoline-1-carboxamido)benzoic acid, TFA salt] the Ki [1, 3] was 913 nM and the Ki ([2]; measured at 37° C. (*)) was > 6000 nM.

For `O=C(O)c1ccc(NC(=O)C2c3cccc(N4CCC(N5CCCC5=O)CC4)c3CCN2C(=O)c2cn(-c3cccc(Cl)c3F)nn2)cc1` (centres unmarked) [Example 72, 4-(2-(1-(3-chloro-2-fluorophenyl)-1H-1,2,3-triazole-4-carbonyl)-5-(4-(2-oxopyrrolidin-1-yl)piperidin-1-yl)-1,2,3,4-tetrahydroisoquinoline-1-carboxamido)benzoic acid, TFA salt], the Ki [1, 3] was < 5 nM and the Ki [2, 4] was 13.8 nM.

`O=C(O)c1ccc(NC(=O)C2c3cccc(N4CCC(N5CCCC5=O)CC4)c3CCN2C(=O)c2cnn(-c3cccc(Cl)c3F)c2)cc1` (centres unmarked) [Example 74, 4-(2-(1-(3-chloro-2-fluorophenyl)-1H-pyrazole-4-carbonyl)-5-(4-(2-oxopyrrolidin-1-yl)piperidin-1-yl)-1,2,3,4-tetrahydroisoquinoline-1-carboxamido)benzoic acid, TFA salt] was tested, and the Ki [1, 3] was < 5 nM and the Ki [2, 4] was 27.6 nM.

With `O=C1CCC2(CCN(c3cccc4c3CCN(C(=O)c3cnn(-c5cccc(Cl)c5F)c3)C4C(=O)Nc3ccc(C(=O)O)cc3)CC2)O1` (centres unmarked) [Example 75, 4-(2-(1-(3-chloro-2-fluorophenyl)-1H-pyrazole-4-carbonyl)-5-(2-oxo-1-oxa-8-azaspiro[4.5]-decan-8-yl)-1,2,3,4-tetrahydroisoquinoline-1-carboxamido)benzoic acid, TFA salt] the Ki [1, 3] was < 5 nM and the Ki [2, 4] was 25.8 nM.

`O=C1CCC2(CCN(c3cccc4c3CCN(C(=O)c3cn(-c5cccc(Cl)c5F)nn3)C4C(=O)Nc3ccc(C(=O)O)cc3)CC2)O1` (centres unmarked) [Example 76, 4-(2-(1-(3-chloro-2-fluorophenyl)-1H-1,2,3-triazole-4-carbonyl)-5-(2-oxo-1-oxa-8-azaspiro[4.5]decan-8-yl)-1,2,3,4-tetrahydroisoquinoline-1-carboximido)benzoic acid, TFA] was tested, and the Ki [1, 3] was < 5 nM and the Ki [2, 4] was 15.3 nM.

In the case of `O=C1CCC2(CCN(c3cccc4c3CCN(C(=O)c3cn(-c5cccc(Cl)c5F)cn3)C4C(=O)Nc3ccc(C(=O)O)cc3)CC2)O1` (centres unmarked) [Example 77, 4-(2-(1-(3-chloro-2-fluorophenyl)-1H-imidazole-4-carbonyl)-5-(2-oxo-1-oxa-8-azaspiro[4.5]decan-8-yl)-1,2,3,4-tetrahydroisoquinoline-1-carboxamido)benzoic acid, TFA salt], the Ki [1, 3] is reported as < 5 nM and the Ki [2, 4] is reported as 7.96 nM.

`O=C(O)c1ccc(NC(=O)C2c3cccc(N4CCCCC4)c3CCN2C(=O)c2cn(-c3cccc(Cl)c3F)nn2)cc1` (centres unmarked) [Example 78, 4-(2-(1-(3-chloro-2-fluorophenyl)-1H-1,2,3-triazole-4-carbonyl)-5-(piperidin-1-yl)-1,2,3,4-tetrahydroisoquinoline-1-carboxamido)benzoic acid, TFA salt] gave a Ki [1, 3] of 9.16 nM and a Ki [2, 4] of 36.1 nM.

`CN1CCN(c2cccc3c2CCN(C(=O)c2cn(-c4cccc(Cl)c4F)nn2)[C@H]3C(=O)Nc2ccc(C(=O)O)cc2)C(=O)C1` [Example 79, (R)-4-(2-(1-(3-chloro-2-fluorophenyl)-1H-1,2,3-triazole-4-carbonyl)-5-(4-methyl-2-oxopiperazin-1-yl)-1,2,3,4-tetrahydroisoquinoline-1-carboxamido)benzoic acid, TFA salt] was tested, and the Ki [1, 3] was 114 nM and the Ki [2, 4] was 719 nM.

For `CN1CCN(c2cccc3c2CCN(C(=O)c2cn(-c4cccc(Cl)c4F)nn2)[C@@H]3C(=O)Nc2ccc(C(=O)O)cc2)C(=O)C1` [Example 80, (S)-4-(2-(1-(3-chloro-2-fluorophenyl)-1H-1,2,3-triazole-4-carbonyl)-5-(4-methyl-2-oxopiprazin-1-yl)-1,2,3,4-tetrahydroisoquinoline-1-carboxamido)benzoic acid, HCl], the Ki [1, 3] was < 5 nM and the Ki [2, 4] was 6.37 nM.

`O=C(O)c1ccc(NC(=O)C2c3cccc(N4CCCCC4=O)c3CCN2C(=O)c2cn(-c3cccc(Cl)c3F)nn2)cc1` (centres unmarked) [Example 81, 4-(2-(1-(3-chloro-2-fluorophenyl)-1H-1,2,3-triazole-4-carbonyl)-5-(2-oxopiperidin-1-yl)-1,2,3,4-tetrahydroisoquinoline-1-carboxamido)benzoic acid] was tested, and the Ki [1, 3] was < 5 nM and the Ki [2, 4] was 20.7 nM.
